Test results as given in article PMC7083565, “In vitro metabolism, reaction phenotyping, enzyme kinetics, CYP inhibition and induction potential of ataluren” (Pharmacology Research & Perspectives, 2020).

Key:
[1] = Plasma protein binding (ultrafiltration), rat; type: in vitro ADME; settings: male, Sprague Dawley, 50 to 50 000 ng/mL, mean ± SD, n = 3, read-out: percentage protein binding (converted)
Procedure: [^14C]‐Ataluren, at 50, 500, 5000, and 50 000 ng/mL or 0.175, 1.75, 17.5, and 175 µM, in male mouse, rat, dog, monkey, and human plasma, was incubated (n = 3) at 37°C for approximately 15 minutes, transferred into Centrifree® Micropartition Units (30 000 Da molecular weight cutoff, 1 mL capacity; Amicon Inc), and centrifuged at 37°C and 2000 g for approximately 10 minutes so that the amount of the sample filtered was approximately ≤ 20% of the total volume. After centrifugation, the entire ultrafiltrate was weighed and analyzed for radioactivity using liquid scintillation counting. The percent bound = (1‐Cu/Cm)×100, where Cu is the concentration of radioactivity in the ultrafiltrate and Cm is the concentration of radioactivity in the plasma before centrifugation.

[2] = system: CYP2C8; experiment: CYP induction in primary human hepatocytes: CYP2C8; type: in vitro ADME; settings: male, 48 h
Procedure: (§1) Human hepatocytes isolated from three Caucasian males were transferred to 48‐well collagen‐coated plates at 0.14 × 10^6 cells/well in planting media for attachment. After attachment, planting media was replaced with sandwich media and the cells were incubated until clusters were established. […] The incubation solutions were aspirated and replaced with freshly prepared incubation solutions containing ataluren for an additional 24 hours. […] The incubation solutions were then aspirated and 150 µL of K‐H buffer containing CYP substrates were added. […] Metabolite formation in incubations with test compounds and control inhibitors was assessed with validated LC‐MS/MS methods for each of the reaction products as described in Table S2. Enzymatic activity for each CYP was calculated using the absolute amount of metabolite formed (pmol) divided by hepatocytes in the incubation (million cells) and the incubation time (minute). The relative fold induction in enzymatic activity was calculated by comparing the rate of metabolite formation for treatment groups to that of the solvent control group (reported as vehicle control%) or positive control group (reported as positive control%).

[3] = system: CYP2E1; experiment: CYP induction in primary human hepatocytes: CYP2E1; type: in vitro ADME; settings: male, 48 h, 4 µM
Procedure: as §1

[4] = system: CYP1A2; experiment: CYP induction in primary human hepatocytes: CYP1A2; settings: Phenacetin O-deethylase, 48 hours, n=3

For O=C(O)c1cccc(-c2noc(-c3ccccc3F)n2)c1 [ataluren, Ataluren], the fraction unbound at 15 min [1] was 0.013, the “Vehicle control %, Mean” value ([2]; 4 µM) was 93.0% and the “Vehicle control %, Mean” value ([2]; 400 µM) was 67.6%. For the same compound, the “Vehicle control %, Mean” value [3] was 99.0%, the “Positive control %, Mean” value ([4]; ataluren 4 µM) was 1.32% and the “Positive control %, Mean” value ([4]; ataluren 40 µM) was 1.24%. For the same compound, the “Vehicle control %, Mean” value ([4]; ataluren 40 µM) was 116%, the “Positive control %, Mean” value ([4]; ataluren 400 µM) was 0.087% and the “Vehicle control %, Mean” value ([4]; ataluren 400 µM) was 100%.
